Results as given in patent US12421224B2 (BIOGEN MA INC., priority 2019, dated 2025).

Each molecule was assayed against T1, Recombinant full length human OGA enzyme (Homo sapiens, UniProt O60502) (assay: OGA Enzyme Inhibition Biochemical Assay). Conditions: 1 nM OGA, 100 μM 4-MUGlcNAc (Km), pH 6.4, 90 minutes at room temperature, 10-point dose-response starting from 20 μM.
T1 construct: Recombinant full length human OGA enzyme; purchased Origene
T1 sequence (O60502 1-916): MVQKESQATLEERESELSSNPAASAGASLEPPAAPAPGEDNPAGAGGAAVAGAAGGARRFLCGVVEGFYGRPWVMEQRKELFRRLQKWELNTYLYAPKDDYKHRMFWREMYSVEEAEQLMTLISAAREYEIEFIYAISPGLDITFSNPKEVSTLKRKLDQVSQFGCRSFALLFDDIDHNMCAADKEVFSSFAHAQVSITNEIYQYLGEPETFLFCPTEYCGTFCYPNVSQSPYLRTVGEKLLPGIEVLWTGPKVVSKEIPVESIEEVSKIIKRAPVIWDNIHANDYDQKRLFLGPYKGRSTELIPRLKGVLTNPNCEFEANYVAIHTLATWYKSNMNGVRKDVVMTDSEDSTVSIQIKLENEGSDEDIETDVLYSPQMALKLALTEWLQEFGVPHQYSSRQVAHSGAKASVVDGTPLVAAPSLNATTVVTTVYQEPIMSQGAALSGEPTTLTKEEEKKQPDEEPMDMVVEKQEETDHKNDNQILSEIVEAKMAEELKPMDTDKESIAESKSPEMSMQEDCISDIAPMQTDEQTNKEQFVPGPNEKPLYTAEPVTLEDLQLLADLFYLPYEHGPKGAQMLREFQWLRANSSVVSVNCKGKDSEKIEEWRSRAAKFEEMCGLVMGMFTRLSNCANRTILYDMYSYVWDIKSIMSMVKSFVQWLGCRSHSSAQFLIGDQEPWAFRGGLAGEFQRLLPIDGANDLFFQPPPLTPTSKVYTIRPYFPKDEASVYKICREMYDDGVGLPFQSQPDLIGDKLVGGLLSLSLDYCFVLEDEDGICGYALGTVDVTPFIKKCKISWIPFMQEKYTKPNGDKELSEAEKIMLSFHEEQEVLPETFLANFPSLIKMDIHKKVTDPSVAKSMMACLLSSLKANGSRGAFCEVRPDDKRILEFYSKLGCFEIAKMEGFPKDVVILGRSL
Experimental: OGA Enzyme Inhibition Biochemical Assay
Recombinant full length human OGA enzyme was purchased from Origene. 4-MUGlCNAc substrate was purchased from Sigma. All other reagents were purchased from Sigma or Fisher. Assay buffer consists of the Mcllvaine buffer system, pH 6.4 (0.2M Na2HPO4 mixed with 0.1M citric acid) and 0.01% BSA. Reactions consist of 1 nM OGA, 100 μM 4-MUGlcNAc (Km), and compound in a final volume of 10 μl. Reactions were incubated for 90 minutes at room temperature and quenched with […] of 3M glycine, pH 10 and read on a Perkin Elmer Envision plate reader (Ex: 355 nm/Em: 460 nm). Compounds were tested with a 10-point dose-response starting from 20 μM with a 4-fold dilution. Data was fit using GraphPad Prism using a 4-parameter fit with variable slope.
Molecule `CC(=O)Nc1ncc(CN2CC(NCc3cc(C)nc(C)c3)C2)s1` [Example 3-1, N-(5-((3-(((2,6-dimethylpyridin-4-yl)methyl)amino)azetidin-1-yl)methyl)thiazol-2-yl)acetamide] has an IC50 of 91 nM.
With `CC(=O)Nc1ncc(CN2CC(CNc3cc(C)nc(C)n3)C2)s1` [Example 2-26, N-(5-((3-(((2,6-dimethylpyrimidin-4-yl)amino)methyl)azetidin-1-yl)methyl)thiazol-2-yl)acetamide] the IC50 was 1300 nM.
Molecule `CC(=O)Nc1ncc(CN2CC(OCc3noc(C)n3)C2)s1` [Example 1-3, N-(5-((3-((5-methyl-1,2,4-oxadiazol-3-yl)methoxy)azetidin-1-yl)methyl)thiazol-2-yl)acetamide] has an IC50 of 220 nM.
With `CC(=O)Nc1ncc(CN2CC(CNc3cc(C)nc(C)c3)C2)s1` [Example 2-24, N-(5-((3-(((2,6-dimethylpyridin-4-yl)amino)methyl)azetidin-1-yl)methyl)thiazol-2-yl)acetamide] the IC50 was 1400 nM.
In the case of `CC(=O)Nc1ncc(CN2CC(Oc3ncccc3C)C2)s1` [Example 2-4, N-(5-((3-((3-methylpyridin-2-yl)oxy)azetidin-1-yl)methyl)thiazol-2-yl)acetamide], the IC50 is reported as greater than 20 nM.
For `CCOc1cc(CC2CN(Cc3cnc(NC(C)=O)s3)C2)ccn1` [Example 4-1, N-(5-((3-((2-ethoxypyridin-4-yl)methyl)azetidin-1-yl)methyl)thiazol-2-yl)acetamide], the IC50 was 47 nM.
`CC(=O)Nc1ncc(CN2CC(COc3cc(C)nc(C)n3)C2)s1` [Example 2-21, N-(5-((3-(((2,6-dimethylpyrimidin-4-yl)oxy)methyl)azetidin-1-yl)methyl)thiazol-2-yl)acetamide] gave an IC50 of 1300 nM.
With `CC(=O)Nc1ncc(CN2CC(c3ncc(F)cn3)C2)s1` [Example 5-1] the IC50 was 350 nM.
`CC(=O)Nc1ncc(CN2CC(Oc3ccc(C#N)cn3)C2)s1` [Example 2-5, N-(5-((3-((5-cyanopyridin-2-yl)oxy)azetidin-1-yl)methyl)thiazol-2-yl)acetamide] was tested, and the IC50 was 340 nM.
`COc1cc(OCC2CN(Cc3cnc(NC(C)=O)s3)C2)ccn1` [Example 2-23, N-(5-((3-(((2-methoxypyridin-4-yl)oxy)methyl)azetidin-1-yl)methyl)thiazol-2-yl)acetamide] showed an IC50 of 670 nM.
Work on `CC(=O)Nc1ncc(CN2C[C@H](Nc3ccc(C#N)cn3)[C@H]2C)s1` [Example 2-19, N-(5-(((2R,3S)-3-((5-cyanopyridin-2-yl)amino)-2-methylazetidin-1-yl)methyl)thiazol-2-yl)acetamide] yielded an IC50 of 25 nM.
For `COc1cc(O[C@@H]2CN(Cc3cnc(NC(C)=O)s3)[C@@H]2C)ncn1` (single isomer, unassigned) [Example 2-10], the IC50 was 600 nM.
`COc1cc(CNC2CN(Cc3cnc(NC(C)=O)s3)C2)ccn1` [Example 3-2, N-(5-((3-(((2-methoxypyridin-4-yl)methyl)amino)azetidin-1-yl)methyl)thiazol-2-yl)acetamide] gave an IC50 of 210 nM.
`CC(=O)Nc1ncc(CN2CC(OCc3cc(C)nc(C)c3)C2)s1` [Example 1-2, N-(5-((3-((2,6-dimethylpyridin-4-yl)methoxy)azetidin-1-yl)methyl)thiazol-2-yl)acetamide] was tested, and the IC50 was 480 nM.
`COc1cc(NC2CN(Cc3cnc(NC(C)=O)s3)C2)ccn1` [Example 2-12, N-(5-((3-((2-methoxypyridin-4-yl)amino)azetidin-1-yl)methyl)thiazol-2-yl)acetamide] showed an IC50 of 33 nM.
`CC(=O)Nc1ncc(CN2C[C@H](Oc3ccc(F)cn3)[C@H]2C)s1` [Example 2-9, N-(5-(((2R,3S)-3-((5-fluoropyridin-2-yl)oxy)-2-methylazetidin-1-yl)methyl)thiazol-2-yl)acetamide] gave an IC50 of 170 nM.
`CC(=O)Nc1ncc(CN2CC(COc3cc(C)nc(C)c3)C2)s1` [Example 2-20, N-(5-((3-(((2,6-dimethylpyridin-4-yl)oxy)methyl)azetidin-1-yl)methyl)thiazol-2-yl)acetamide] showed an IC50 of 480 nM.
`CC(=O)Nc1ncc(CN2C[C@@H](Nc3ccc(F)cn3)[C@H]2C)s1` [Example 2-15, N-(5-(((2R,3R)-3-((5-fluoropyridin-2-yl)amino)-2-methylazetidin-1-yl)methyl)thiazol-2-yl)acetamide] gave an IC50 of 800 nM.
`COc1cc(OC2CN(Cc3cnc(NC(C)=O)s3)C2)ncn1` [Example 2-1, N-(5-((3-((6-methoxypyrimidin-4-yl)oxy)azetidin-1-yl)methyl)thiazol-2-yl)acetamide] was tested, and the IC50 was 407 nM.
`CC(=O)Nc1ncc(CN2C[C@H](Oc3ncc(F)cn3)[C@H]2C)s1` [Example 2-33, N-(5-(((2R,3S)-3-((5-fluoropyrimidin-2-yl)oxy)-2-methylazetidin-1-yl)methyl)thiazol-2-yl)acetamide] was tested, and the IC50 was 390 nM.
`COc1cc(N[C@H]2CN(Cc3cnc(NC(C)=O)s3)[C@@H]2C)ccn1` [Example 2-17, N-(5-(((2R,3S)-3-((2-methoxypyridin-4-yl)amino)-2-methylazetidin-1-yl)methyl)thiazol-2-yl)acetamide] gave an IC50 of 11 nM.
In the case of `COc1cc(O[C@H]2CN(Cc3cnc(NC(C)=O)s3)[C@@H]2C)ncn1` [Example 2-27, N-(5-(((2R,3S)-3-((6-methoxypyrimidin-4-yl)oxy)-2-methylazetidin-1-yl)methyl)thiazol-2-yl)acetamide], the IC50 is reported as 600 nM.
`COc1cc(NC2CN(Cc3cnc(NC(C)=O)s3)C2)ncn1` [Example 2-11] gave an IC50 of 407 nM.
`COc1cc(O[C@@H]2CN(Cc3cnc(NC(C)=O)s3)[C@@H]2C)ncn1` [Example 2-28, N-(5-(((2R,3R)-3-((6-methoxypyrimidin-4-yl)oxy)-2-methylazetidin-1-yl)methyl)thiazol-2-yl)acetamide] showed an IC50 of 110 nM.
Molecule `COc1cc(N[C@@H]2CN(Cc3cnc(NC(C)=O)s3)[C@@H]2C)ccn1` [Example 2-16, N-(5-(((2R,3R)-3-((2-methoxypyridin-4-yl)amino)-2-methylazetidin-1-yl)methyl)thiazol-2-yl)acetamide] has an IC50 of 570 nM.
In the case of `CC(=O)Nc1ncc(CN2C[C@@H](Oc3ccc(F)cn3)[C@H]2C)s1` [Example 2-8, N-(5-(((2R,3R)-3-((5-fluoropyridin-2-yl)oxy)-2-methylazetidin-1-yl)methyl)thiazol-2-yl)acetamide], the IC50 is reported as 450 nM.
For `CC(=O)Nc1ncc(CN2C[C@H](Oc3ncc(F)cn3)[C@H]2C)s1` [Example 2-30, N-(5-(((2R,3S)-3-((5-fluoropyrimidin-2-yl)oxy)-2-methylazetidin-1-yl)methyl)thiazol-2-yl)acetamide], the IC50 was 170 nM.
For `CC(=O)Nc1ncc(CN2CC(Nc3ccc(F)cn3)C2)s1` [Example 2-14, N-(5-((3-((5-fluoropyridin-2-yl)amino)azetidin-1-yl)methyl)thiazol-2-yl)acetamide], the IC50 was 130 nM.
`CC(=O)Nc1ncc(CN2CC(Nc3ccc(C#N)cn3)C2)s1` [Example 2-13, N-(5-((3-((5-cyanopyridin-2-yl)amino)azetidin-1-yl)methyl)thiazol-2-yl)acetamide] was tested, and the IC50 was 59 nM.
For `COc1cc(O[C@@H]2CN(Cc3cnc(NC(C)=O)s3)[C@@H]2C)ccn1` [Example 2-6, N-(5-(((2R,3R)-3-((2-methoxypyridin-4-yl)oxy)-2-methylazetidin-1-yl)methyl)thiazol-2-yl)acetamide], the IC50 was 170 nM.
`CC(=O)Nc1ncc(CN2C[C@H](Oc3ccc(C#N)cn3)[C@H]2C)s1` [Example 2-32, N-(5-(((2R,3S)-3-((5-cyanopyridin-2-yl)oxy)-2-methylazetidin-1-yl)methyl)thiazol-2-yl)acetamide] was tested, and the IC50 was 980 nM.
